Results published in EP0571670A1, “Pharmaceutical compositions for use as mast cell stabilizer” (THE PROCTER & GAMBLE COMPANY, priority 1992, dated 1993).
Read-outs that look alike come from different tables or passages of the source.

How the values were obtained:
[1] = test system: rat peritoneal mast cells; assay: Mast cell stabilization test: induced histamine release; assay type: cell-based, Wistar male rats; settings: at the concentrations used: sodium cromoglycate 0.005 %, menthol 0.025 %, camphor 0.015 %, eucalyptol 0.0075 %
Protocol: (§1) Peritoneal rat mast cells are collected from 250 to 300 g Wistar male rats by the following procedure. Following sacrifice, each rat is injected into the peritoneal cavity with 10 ml of ice cold HEPES-buffered salt solution (HBSS), pH 7.2, containing 5 U/ml heparin. The HBSS contains 137 mM of […], 10mM HEPES, 5mM D-glucose, 2.7 mM KCl, 0.4 mM NaH₂PO₄, 0.5 mM MgCl₂ and 1 % foetal calf serum (FCS). The abdomen is massaged gently for 2 to 3 minutes and then an incision is made in the abdomen, the buffer removed by a pipette, and the peritoneal cavity lavaged twice with ice-cold HBSS. The extract is then centrifuged at 200 rpm for 10 minutes at 20°C to collect the peritoneal mast cells. These cells are then suspended again in HBSS. A count of cells present is made using an aliquot of this suspension by staining with Kimura metachromatic stain. Typically, about 1.2 to 1.7x10⁶ mast cells are collected from each animal. The rat mast cells are then activated using a Compound 48/80 in the presence of the test aromatic and antihistamine compounds and histamine-release measured as follows. 720 µl aliquots containing 9 x 10⁴ mast cells at 37°C are added to vials containing various combinations of aromatic flavour compounds. The concentrations of tyloxapol, menthol, camphor, and eucalyptol are 0.7 %, 0.025 %, 0.015 %, and 0.0075 % respectively. The solutions are incubated for about 10 minutes before 200 µl aliquots are added to tubes containing 25 µl of Compound 48/80, 25 µl of sodium cromoglycate and/or buffer, giving a concentration of Compound 48/80 and sodium cromoglycate in the tubes of […] and 0.005 % respectively. The histamine release reactions in the tubes is terminated after 10 minutes (37°C) by adding 750 µl of ice-cold HBSS and centrifuging the resulting solution for 10 minutes at 2000 rpm at 4°C. The histamine released by stimulus and the total cell histamine content are respectively determined by assaying the supernatant liquid after acidification with 5 % trichloroacetic acid (TCA) and by disintegrating the cells in 5 % (TCA) followed by analysis by automated spectrofluoremetry. […] (The net histamine release induced by compound 48/80 at the concentration used (0.1 µg/ml) was about three times the net histamine release induced by tyloxapol (15.07 ± 2.0 %)).

[2] = test system: rat peritoneal mast cells; assay: Mast cell stabilization test: histamine release inhibition; assay type: cell-based, Wistar male rats; settings: for inhibition at 100 µM: Rattus norvegicus, Mast cell, 100 µM of sodium cromoglycate
Protocol: as §1, with “Eucalyptol” for “(The net histamine release induced by compound 48/80”, “0.0075 % gave a 9 % (non-significant) inhibitory effect. Menthol at 0.025 %” for “the concentration used (0.1 µg/ml)”, “not effective.” for “about three times the net histamine release induced by tyloxapol (15.07 ± 2.0 %)).”

Structure (SMILES)	release of histamine induced by the substance [1]	inhibitory effect on histamine release ([2]; eucalyptol at 0.0075 %, non-significant) [%]	inhibition at 100 µM ([2]; read-out: inhibition of Compound 48/80-induced histamine release) [%]	inhibition at 100 µM ([2]; read-out: inhibition of tyloxapol-induced histamine release) [%]	inhibition of histamine release ([2]; menthol at 0.025 %)	inhibition of histamine release against Compound 48/80 and tyloxapol-induced histamine release ([2]; camphor at 0.015 %, series of five experiments) [%]
CC12CCC(CC1)C(C)(C)O2 [eucalyptol]	did not induce release of histamine	9				
O=C(O)c1cc(=O)c2c(OCC(O)COc3cccc4oc(C(=O)O)cc(=O)c34)cccc2o1 [sodium cromoglycate]	did not induce release of histamine		67	152		
CC1CCC(C(C)C)C(O)C1 (stereo not drawn) [menthol]	did not induce release of histamine				not effective	
CC12CCC(CC1=O)C2(C)C (stereo not drawn) [camphor]	did not induce release of histamine					45
